Reference: ChEMBL document CHEMBL1146167, “Structural correlation between lipophilicity and lipopolysaccharide-sequestering activity in spermine-sulfonamide analogs” (Bioorg Med Chem Lett, 2006)

Test: Binding affinity to LPS by fluorescence-based displacement assay

ED50 [µM]	Structure (SMILES)
884	NCCCNCCCCNCCCNS(=O)(=O)c1ccc(C(F)(F)F)cc1
4880	NCCCNCCCCNCCCNS(=O)(=O)c1cccc2cccnc12
6	CCCCCCCCCCCCCCCCCCS(=O)(=O)NCCCNCCCCNCCCN
9	NCCCNCCCCNCCCNS(=O)(=O)c1ccc(Cl)c(Cl)c1Cl
1680	CC1(C)C2CCC1(CS(=O)(=O)NCCCNCCCCNCCCN)C(=O)C2 (centres undefined)
56	NCCCNCCCCNCCCNS(=O)(=O)c1ccc(Cl)cc1Cl
3	CCCCCCCCCCS(=O)(=O)NCCCNCCCCNCCCN
25	CC(C)(C)c1ccc(S(=O)(=O)NCCCNCCCCNCCCN)cc1
5	CCCCCCCCS(=O)(=O)NCCCNCCCCNCCCN
2960	NCCCNCCCCNCCCNS(=O)(=O)c1ccccc1
2	CCCCCCCCCCCCCCCCS(=O)(=O)NCCCNCCCCNCCCN
3	CCCCCCCCCCCCS(=O)(=O)NCCCNCCCCNCCCN
> 10000	CCCCS(=O)(=O)NCCCNCCCCNCCCN
2110	NCCCNCCCCNCCCNS(=O)(=O)c1ccc(Br)cc1Br
4	CCCCOc1ccc(CC(C)(C)C)cc1S(=O)(=O)NCCCNCCCCNCCCN
21	NCCCNCCCCNCCCNS(=O)(=O)c1ccc(Cl)c(C(F)(F)F)c1
19	NCCCNCCCCNCCCNS(=O)(=O)c1cc(Cl)c(Cl)cc1Cl
34	NCCCNCCCCNCCCNS(=O)(=O)c1cccc2ccccc12
158	NCCCNCCCCNCCCNS(=O)(=O)c1ccc(Cl)cc1
